Measurements from the supplement of paper PMC10307832.

Assays:
Test in all cases: relative viability (nuclei count vs DMSO), 5 days (fraction); higher = more cells survive
[1] = compound: CCn1c(-c2nonc2N)nc2cnc(Oc3cccc(NC(=O)c4ccc(OCCN5CCOCC5)cc4)c3)cc21 + Cc1nc(Nc2ncc(C(=O)Nc3c(C)cccc3Cl)s2)cc(N2CCN(CCO)CC2)n1 [Dasatinib] (partner 0.075 µM)
In short: (§1)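 Dosing by pin tool came one day after lung cancer cell lines were seeded in 1536-well plates, using either one drug or a fixed anchor-drug dose plus five library-drug doses (not always all listed) in √10 steps. After 5 days, nuclei were counted on 4× images. Relative viability is treated-well nuclei count divided by vehicle-well nuclei count, and values are medians of duplicate plates.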

[2] = compound: CCn1c(-c2nonc2N)nc2cnc(Oc3cccc(NC(=O)c4ccc(OCCN5CCOCC5)cc4)c3)cc21 + N=C(N)NC(=N)NCCc1ccccc1 [Phenformin] (partner 250 µM)
In short: as §1

[3] = compound: CCn1c(-c2nonc2N)nc2cnc(Oc3cccc(NC(=O)c4ccc(OCCN5CCOCC5)cc4)c3)cc21 + NC(=O)Nc1cc(-c2cccc(F)c2)sc1C(=O)N[C@H]1CCCNC1 [AZD7762] (partner 0.2 µM)
In short: as §1

Mirin + Decitabine = compound: N=C1NC(=O)/C(=C/c2ccc(O)cc2)S1 [Mirin] + Nc1ncn([C@H]2C[C@H](O)[C@@H](CO)O2)c(=O)n1 [Decitabine] (partner 2 µM)
In short: as §1

| Cell Line | relative viability ([1]; first compound 0.04 µM) | relative viability ([1]; first compound 0.1265 µM) | relative viability ([1]; first compound 0.4 µM) | relative viability ([1]; first compound 1.265 µM) | relative viability ([1]; first compound 4 µM) | relative viability ([2]; first compound 0.04 µM) | relative viability ([2]; first compound 0.1265 µM) | relative viability ([2]; first compound 0.4 µM) | relative viability ([2]; first compound 1.265 µM) | relative viability ([2]; first compound 4 µM) | relative viability ([3]; first compound 0.04 µM) | relative viability ([3]; first compound 0.1265 µM) | relative viability ([3]; first compound 0.4 µM) | relative viability ([3]; first compound 1.265 µM) | relative viability ([3]; first compound 4 µM) | relative viability (Mirin + Decitabine; first compound 0.25 µM) | relative viability (Mirin + Decitabine; first compound 0.7906 µM) | relative viability (Mirin + Decitabine; first compound 2.5 µM) | relative viability (Mirin + Decitabine; first compound 7.906 µM) | relative viability (Mirin + Decitabine; first compound 25 µM) |
| --- | --- | --- | --- | --- | --- | --- | --- | --- | --- | --- | --- | --- | --- | --- | --- | --- | --- | --- | --- | --- |
| HCC-827 | 0.24 | 0.328 | 0.459 | 0.484 | 0.424 | 0.489 | 0.484 | 0.439 | 0.414 | 0.399 | 0.241 | 0.23 | 0.233 | 0.178 | 0.203 | 0.17 | 0.262 | 0.36 | 0.308 | 0.351 |
| HOP-62 | 0.511 | 0.344 | 0.179 | 0.172 | 0.17 | 0.739 | 0.686 | 0.55 | 0.357 | 0.368 | 0.774 | 0.443 | 0.468 | 0.227 | 0.19 | 0.221 | 0.188 | 0.203 | 0.224 | 0.218 |
| LC-2-ad | 0.957 | 0.717 | 0.343 | 0.309 | 0.479 | 0.679 | 0.563 | 0.397 | 0.362 | 0.524 | 0.882 | 0.79 | 0.57 | 0.368 | 0.281 | 0.843 | 0.814 | 0.743 | 0.78 | 0.921 |
| LCLC-97TM1 | 0.969 | 0.929 | 0.673 | 0.99 | 0.811 | 0.485 | 0.431 | 0.23 | 0.463 | 0.361 | 0.273 | 0.425 |  |  | 0.135 | 0.239 | 0.224 | 0.228 | 0.179 | 0.197 |
| LCLC-103H | 0.532 | 0.37 | 0.134 | 0.227 | 0.178 | 0.421 | 0.286 | 0.182 | 0.216 | 0.222 | 0.837 | 0.743 | 0.422 | 0.397 | 0.404 | 0.692 | 0.759 | 0.736 | 0.797 | 0.871 |
| LK-2 | 0.39 | 0.493 | 0.208 | 0.178 | 0.252 | 0.864 | 0.618 | 0.167 | 0.189 | 0.244 | 0.525 | 0.583 | 0.156 | 0.113 | 0.284 | 0.161 | 0.206 | 0.299 | 0.21 | 0.227 |
| LOU-NH91 | 0.524 | 0.454 | 0.312 | 0.273 | 0.304 | 0.797 | 0.605 | 0.465 | 0.389 | 0.404 | 0.782 | 0.631 | 0.421 | 0.432 | 0.424 | 0.799 | 0.843 | 0.874 | 0.9 | 1.03 |
| LU99A | 0.573 | 0.467 | 0.352 | 0.367 | 0.388 | 0.614 | 0.706 | 0.623 | 0.683 | 0.505 | 0.439 | 0.436 | 0.241 | 0.296 | 0.252 | 0.877 | 0.785 | 0.94 | 0.892 | 0.736 |
